In US8148373B2, “Compounds” (AstraZeneca AB, priority 2008, dated 2012):

Key:
[1] = biological target: T1, Adrenergic β2 (H292 cells) (Homo sapiens, UniProt P07550); assay: Adrenergic β2 Mediated cAMP Production, single concentration 1 μM; assay type: cell-based; details: NCI-H292, 1 μM compound, percentage of the maximum response generated by 1E-07M formoterol, read-out: β2 (% effect at 1 μM)
T1 construct: endogenous in cells; host or cells: H292 cells
Protocol: The following experimental procedure was used to measure the beta-2% effect at 1 μM for the compounds of Examples 116-263. Adrenergic β2 Mediated cAMP Production Cell Preparation
H292 cells are grown in 225 cm2 flasks incubator at 37° C., 5% CO2 in RPMI medium containing 10% (v/v) FBS (foetal bovine serum) and 2 mM L-glutamine.
Compounds were prepared by an initial first dilution into DMSO to give 1 mM stock concentration. This was followed by a 1 in 10 dilution of the stock concentration (10 μl stock compound+90 μl DMSO) to give 0.1 mM compound.
A compound addition plate was prepared by making a further 1 in 25 dilution in assay buffer (HBSS solution containing 10 mM HEPES pH7.4 and 5 mM glucose) containing 4% dimethylsulfoxide. The final compound concentration in assay is 1 μM.
Adherent H292 cells are removed from tissue culture flasks by treatment with Accutase™ cell detachment solution for 15 minutes. Flasks are incubated for 15 minutes in a humidified incubator at 37° C., 5% CO2. Detached cells are re-suspended in RPMI media (containing 10% (v/v) FBS and 2 mM L-glutamine) at 0.1×10^6 cells per mL. 10000 cells in 100 μL are added to each well of a tissue-culture-treated 96-well plate and the cells incubated overnight in a humidified incubator at 37° C., 5% CO2. The culture media is removed and cells are washed twice with 100 μL assay buffer and replaced with 50 μL assay buffer (HBSS solution containing 10 mM HEPES pH7.4 and 5 mM glucose). Cells are rested at room temperature for 20 minutes after which time 25 μL of rolipram (1.2 mM made up in assay buffer) is added. Cells are incubated with rolipram for 10 minutes after which time 25 μl test compounds are added and the cells are incubated for 60 minutes at room temperature. The final rolipram concentration in the assay is 300 μM and final vehicle concentration is 1% (v/v) dimethylsulphoxide. The reaction is stopped by removing supernatants, washing once with 100 μL assay buffer and replacing with 50 μL lysis buffer. The cell monolayer is frozen at −80° C. for 30 minutes (or overnight).
AlphaScreen™ cAMP Detection
The concentration of cAMP (cyclic adenosine monophosphate) in the cell lysate is determined using AlphaScreen™ methodology. The frozen cell plate is thawed for 20 minutes on a plate shaker then 10 μL of the cell lysate is transferred to a 96-well white plate. 40 μL of mixed AlphaScreen™ detection beads (containing equal volumes of donor beads (pre-incubated with biotinylated cAMP in the dark for 30 minutes) and acceptor beads is added to each well and the plate incubated at room temperature for 3 hours in the dark. The AlphaScreen™ signal is measured using an EnVision spectrophotometer (Perkin-Elmer Inc.) with the recommended manufacturer's settings. Concentration of cAMP produced per well were calculated with reference to the cAMP standard curve determined in the same experiment and expressed as a percentage of the maximum response generated by 1E-07M formoterol.

[2] = biological target: T2, human muscarinic acetylcholine M3 receptor (M3-ACh) (Homo sapiens, UniProt P20309); assay: Muscarinic 3 Receptor Binding Assay, % inhibition specific binding at 1 μM; details: 1 μM compound, % inhibition specific [3H]-NMS binding
T2 construct: expressed in transfected cells; host or cells: CHO-K1 (Chinese Hamster Ovary) cell membranes
Protocol: The following experimental procedure was used to determine the M3% inhibition at 1 μM of the compounds of Examples 116-263.
Muscarinic 3 Receptor Binding Assay
The activity (% inhibition specific binding) of compounds -on the M3 receptor is determined by competition binding of [^3H]N-methyl scopolamine (NMS) to CHO-K1 (Chinese Hamster Ovary) cell membranes expressing the human muscarinic acetylcholine M3 receptor (M3-ACh) in a scintillation proximity assay (SPA) format.
SPA beads are precoated with membranes and then incubated at 2 mg of beads per well with 1 μM compound of the invention, [^3H]NMS at 0.1 nM, quarter Kd (experimentally determined dissociation constant) and assay buffer (20 mM HEPES pH 7.4 containing 5 mM MgCl2). The assay is conducted in a final volume of 200 μL, in the presence of 1% (v/v) dimethyl sulphoxide (DMSO). Total binding of [^3H]NMS is determined in the absence of competing compound and non-specific binding of [^3H]NMS is determined in the presence of 1 μM atropine. The plates are incubated for 16 hours at room temperature and then read on Wallac Microbeta™ using a normalised ^3H protocol. The compound activity at 1 defined as % inhibition specific [^3H]-NMS binding, is determined.

T2 sequence (P20309 whole entry): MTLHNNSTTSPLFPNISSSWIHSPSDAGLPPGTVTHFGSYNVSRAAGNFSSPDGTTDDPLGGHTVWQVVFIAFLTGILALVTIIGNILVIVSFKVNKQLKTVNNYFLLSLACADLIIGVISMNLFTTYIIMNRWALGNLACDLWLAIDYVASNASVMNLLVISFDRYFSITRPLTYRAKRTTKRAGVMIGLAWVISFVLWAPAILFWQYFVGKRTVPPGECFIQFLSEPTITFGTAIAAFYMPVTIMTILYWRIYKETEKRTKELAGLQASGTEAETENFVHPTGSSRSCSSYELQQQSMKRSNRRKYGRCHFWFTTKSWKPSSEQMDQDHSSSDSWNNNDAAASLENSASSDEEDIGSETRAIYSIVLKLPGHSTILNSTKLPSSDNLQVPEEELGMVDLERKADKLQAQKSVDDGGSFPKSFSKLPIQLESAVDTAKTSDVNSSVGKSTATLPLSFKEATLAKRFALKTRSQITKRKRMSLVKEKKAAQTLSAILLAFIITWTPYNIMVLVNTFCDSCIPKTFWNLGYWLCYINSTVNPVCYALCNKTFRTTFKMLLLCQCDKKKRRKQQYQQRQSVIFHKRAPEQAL
T1 sequence (P07550 whole entry): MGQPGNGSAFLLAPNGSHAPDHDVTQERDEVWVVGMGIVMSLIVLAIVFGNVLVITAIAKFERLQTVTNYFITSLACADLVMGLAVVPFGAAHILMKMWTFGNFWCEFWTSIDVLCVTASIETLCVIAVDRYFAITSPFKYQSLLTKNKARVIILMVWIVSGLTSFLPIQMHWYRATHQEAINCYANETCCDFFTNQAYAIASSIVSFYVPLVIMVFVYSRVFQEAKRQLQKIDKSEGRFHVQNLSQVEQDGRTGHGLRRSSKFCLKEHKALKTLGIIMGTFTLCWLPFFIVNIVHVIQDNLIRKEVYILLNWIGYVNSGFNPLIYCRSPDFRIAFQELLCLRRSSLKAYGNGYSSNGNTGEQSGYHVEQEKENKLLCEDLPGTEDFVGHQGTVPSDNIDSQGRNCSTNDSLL

| Compound | activation at 1 µM [1] [%] | inhibition at 1 µM [2] [%] |
| --- | --- | --- |
| O=C(CCc1nc2ccccc2[nH]1)N1CCOC2(CCN(Cc3cc(F)cc(CCNC[C@H](O)c4ccc(O)c5[nH]c(=O)sc45)c3)CC2)C1 [Example 116, (R)-7-(2-(3-((4-(3-(1H-benzo[d]imidazol-2-yl)propanoyl)-1-oxa-4,9-diazaspiro[5.5]undecan-9-yl)methyl)-5-fluorophenethylamino)-1-hydroxyethyl)-4-hydroxybenzo[d]thiazol-2(3H)-one] | 111 | 3 |
| COc1ccccc1CC(=O)N1CCOC2(CCN(Cc3cc(F)cc(CCNC[C@H](O)c4ccc(O)c5[nH]c(=O)sc45)c3)CC2)C1 [Example 117, (R)-7-(2-(3-fluoro-5-((4-(2-(2-methoxyphenyl)acetyl)-1-oxa-4,9-diazaspiro[5.5]undecan-9-yl)methyl)phenethylamino)-1-hydroxyethyl)-4-hydroxybenzo[d]thiazol-2(3H)-one] | 101 | 22 |
| O=C(c1ccc2ccccc2n1)N1CCOC2(CCN(Cc3cc(F)cc(CCNC[C@H](O)c4ccc(O)c5[nH]c(=O)sc45)c3)CC2)C1 [Example 119, (R)-7-(2-(3-fluoro-5-((4-(quinoline-2-carbonyl)-1-oxa-4,9-diazaspiro[5.5]undecan-9-yl)methyl)phenethylamino)-1-hydroxyethyl)-4-hydroxybenzo[d]thiazol-2(3H)-one] | 100 | 60 |
| O=C(c1cc2ccccc2[nH]1)N1CCOC2(CCN(Cc3cc(F)cc(CCNC[C@H](O)c4ccc(O)c5[nH]c(=O)sc45)c3)CC2)C1 [Example 120, (R)-7-(2-(3-((4-(1H-indole-2-carbonyl)-1-oxa-4,9-diazaspiro[5.5]undecan-9-yl)methyl)-5-fluorophenethylamino)-1-hydroxyethyl)-4-hydroxybenzo[d]thiazol-2(3H)-one] | 101 | 82 |
| Cc1ccccc1C(=O)N1CCOC2(CCN(Cc3cc(F)cc(CCNC[C@H](O)c4ccc(O)c5[nH]c(=O)sc45)c3)CC2)C1 [Example 121, (R)-7-(2-(3-fluoro-5-((4-(2-methylbenzoyl)-1-oxa-4,9-diazaspiro[5.5]undecan-9-yl)methyl)phenethylamino)-1-hydroxyethyl)-4-hydroxybenzo[d]thiazol-2(3H)-one] | 85 | 28 |
| Cc1cccc(C(=O)N2CCOC3(CCN(Cc4cc(F)cc(CCNC[C@H](O)c5ccc(O)c6[nH]c(=O)sc56)c4)CC3)C2)c1 [Example 122, (R)-7-(2-(3-fluoro-5-((4-(3-methylbenzoyl)-1-oxa-4,9-diazaspiro[5.5]undecan-9-yl)methyl)phenethylamino)-1-hydroxyethyl)-4-hydroxybenzo[d]thiazol-2(3H)-one] | 82 | 86 |

Second part, the compound after the results:

| activation at 1 µM [1] [%] | inhibition at 1 µM [2] [%] | Compound |
| --- | --- | --- |
| 97 | 62 | O=C(Cc1ccc(-c2ccccc2)cc1)N1CCOC2(CCN(Cc3cc(F)cc(CCNC[C@H](O)c4ccc(O)c5[nH]c(=O)sc45)c3)CC2)C1 [Example 123, (R)-7-(2-(3-((4-(2-(biphenyl-4-yl)acetyl)-1-oxa-4,9-diazaspiro[5.5]undecan-9-yl)methyl)-5-fluorophenethylamino)-1-hydroxyethyl)-4-hydroxybenzo[d]thiazol-2(3H)-one] |
| 97 | 52 | Cc1ccsc1C(=O)N1CCOC2(CCN(Cc3cc(F)cc(CCNC[C@H](O)c4ccc(O)c5[nH]c(=O)sc45)c3)CC2)C1 [Example 125, (R)-7-(2-(3-fluoro-5-((4-(3-methylthiophene-2-carbonyl)-1-oxa-4,9-diazaspiro[5.5]undecan-9-yl)methyl)phenethylamino)-1-hydroxyethyl)-4-hydroxybenzo[d]thiazol-2(3H)-one] |
| 98 | 50 | O=C(Cc1ccsc1)N1CCOC2(CCN(Cc3cc(F)cc(CCNC[C@H](O)c4ccc(O)c5[nH]c(=O)sc45)c3)CC2)C1 [Example 126, (R)-7-(2-(3-fluoro-5-((4-(2-(thiophen-3-yl)acetyl)-1-oxa-4,9-diazaspiro[5.5]undecan-9-yl)methyl)phenethylamino)-1-hydroxyethyl)-4-hydroxybenzo[d]thiazol-2(3H)-one] |
| 97 | 78 | Cc1ccoc1C(=O)N1CCOC2(CCN(Cc3cc(F)cc(CCNC[C@H](O)c4ccc(O)c5[nH]c(=O)sc45)c3)CC2)C1 [Example 127, (R)-7-(2-(3-fluoro-5-((4-(3-methylfuran-2-carbonyl)-1-oxa-4,9-diazaspiro[5.5]undecan-9-yl)methyl)phenethylamino)-1-hydroxyethyl)-4-hydroxybenzo[d]thiazol-2(3H)-one] |
| 112 | 14 | O=C(CCc1c[nH]c2ccccc12)N1CCOC2(CCN(Cc3cc(F)cc(CCNC[C@H](O)c4ccc(O)c5[nH]c(=O)sc45)c3)CC2)C1 [Example 128, (R)-7-(2-(3-((4-(3-(1H-indol-3-yl)propanoyl)-1-oxa-4,9-diazaspiro[5.5]undecan-9-yl)methyl)-5-fluorophenethylamino)-1-hydroxyethyl)-4-hydroxybenzo[d]thiazol-2(3H)-one] |
| 90 | 20 | O=C(N1CCOC2(CCN(Cc3cc(F)cc(CCNC[C@H](O)c4ccc(O)c5[nH]c(=O)sc45)c3)CC2)C1)C1(c2ccccc2)CCCC1 [Example 129, (R)-7-(2-(3-fluoro-5-((4-(1-phenylcyclopentanecarbonyl)-1-oxa-4,9-diazaspiro[5.5]undecan-9-yl)methyl)phenethylamino)-1-hydroxyethyl)-4-hydroxybenzo[d]thiazol-2(3H)-one] |
| 95 | 41 | Cc1occc1C(=O)N1CCOC2(CCN(Cc3cc(F)cc(CCNC[C@H](O)c4ccc(O)c5[nH]c(=O)sc45)c3)CC2)C1 [Example 131, (R)-7-(2-(3-fluoro-5-((4-(2-methylfuran-3-carbonyl)-1-oxa-4,9-diazaspiro[5.5]undecan-9-yl)methyl)phenethylamino)-1-hydroxyethyl)-4-hydroxybenzo[d]thiazol-2(3H)-one] |
| 92 | 85 | O=C(c1ccc2ncsc2c1)N1CCOC2(CCN(Cc3cc(F)cc(CCNC[C@H](O)c4ccc(O)c5[nH]c(=O)sc45)c3)CC2)C1 [Example 132, (R)-7-(2-(3-((4-(benzo[d]thiazole-6-carbonyl)-1-oxa-4,9-diazaspiro[5.5]undecan-9-yl)methyl)-5-fluorophenethylamino)-1-hydroxyethyl)-4-hydroxybenzo[d]thiazol-2(3H)-one] |
| 110 | 56 | Cc1cccc2nc(C(=O)N3CCOC4(CCN(Cc5cc(F)cc(CCNC[C@H](O)c6ccc(O)c7[nH]c(=O)sc67)c5)CC4)C3)cn12 [Example 133, (R)-7-(2-(3-fluoro-5-((4-(5-methylimidazo[1,2-a]pyridine-2-carbonyl)-1-oxa-4,9-diazaspiro[5.5]undecan-9-yl)methyl)phenethylamino)-1-hydroxyethyl)-4-hydroxybenzo[d]thiazol-2(3H)-one] |
